Reference: paper PMC12419465, “Photoresponsive molecular tweezers modulate Taspase 1 activity” (RSC Chemical Biology, 2025)
Like-named read-outs stand apart in the source and are kept apart here.

What was measured:
[1] = Photoisomerization: photostationary states by 1H NMR, switching cycles by UV-vis; format: physicochemical
Description: Tweezer constructs were synthesized as an E/Z mixture, with a strong preference for the thermodynamically stable E isomer. For photoisomerization, UV-vis spectra of TWAAP and TWAB (50 μM in water) were recorded in their initial state. The constructs were then isomerized to the Z isomer with UV light (λ = 365 nm, 1 min) and back to the E isomer with green light (λ = 520 nm, 5 min). Two light sources were used: UV LED HighPower-LED with 3 W of λ = 365 nm (LED Engin Inc., San Jose, California, US) and a LSC-G HighPower-LED with 3 W of λ = 520 nm (Cree Inc., Durham, North Carolina, US). UV-vis spectroscopy was routinely employed to analyze the tweezer constructs, serving as the method of choice to monitor configurational integrity after multiple switching cycles. More than 10 switching cycles were performed without any loss of configurational integrity. The UV-vis spectra were recorded with a JASCO V-650 double-beam spectrophotometer (JASCO).
The photophysical properties of AAP tweezers TWAAP0-4 as well as those of AZO tweezers TWAB1-2 were consistent with previous reports on these photoswitches. […] The two isomers are easily distinguished by the significant difference in their absorption bands (Fig. 2 and Fig. S4a, b). […] Irradiation with green light further increases the concentration of the E isomer, as confirmed by both UV/vis and NMR spectra. The switching process can be repeated for over 10 cycles without loss of configurational integrity or photodegradation of the tweezer. […] (Fig. 2 and Table S1).
Supplementary Table S1. Photostationary states (PSSE→Z and PSSZ→E) and half-life of Z isomers of
respectively. n.d., not determinable.
TW construct PSSE→Z [%] PSSZ→E [%] […]

wildtype Taspase 1 = target: T1, wildtype Taspase 1 (Homo sapiens, UniProt Q9H6P5); test: Recombinant cleavage assay with GST-MLL2700–2850-GFP-His substrate; format: biochemical; details: for IC50: ligand conc. 10 - 100 µM, 200 nM Taspase 1, 5 µM substrate, n = 3, read-out: IC50 TW (recombinant cleavage, full-length protein)
T1 sequence (Q9H6P5 1-233 limits assumed): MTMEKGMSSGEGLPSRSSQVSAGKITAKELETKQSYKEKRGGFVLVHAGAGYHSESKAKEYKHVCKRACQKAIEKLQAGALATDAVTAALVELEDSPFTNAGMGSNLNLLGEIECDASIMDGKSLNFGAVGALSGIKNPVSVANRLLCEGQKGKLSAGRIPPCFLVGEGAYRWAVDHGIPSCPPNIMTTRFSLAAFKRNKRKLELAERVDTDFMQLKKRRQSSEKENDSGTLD
T1 sequence (Q9H6P5 234-420 limits assumed): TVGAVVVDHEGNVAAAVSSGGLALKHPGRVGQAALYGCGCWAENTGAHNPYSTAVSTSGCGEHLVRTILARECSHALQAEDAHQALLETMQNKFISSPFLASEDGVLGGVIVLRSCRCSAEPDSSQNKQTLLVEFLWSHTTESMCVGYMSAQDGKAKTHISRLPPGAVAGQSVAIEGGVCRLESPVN
Description: The recombinant cleavage assay employing the recombinant fusion protein GST-MLL2700–2850-GFP-His, which contains the CS2 cleavage site of the Mixed-lineage leukemia (MLL) protein as a substrate for Taspase 1, was performed as described.[9,10]
Given that Taspase 1's active site is positioned directly at the base of the loop harboring the bipartite NLS (Fig. 1A, and Fig. S1), it is reasonable to expect that our photoswitchable tweezer constructs, which recognize this signal, might also influence proteolytic activity - similar to the inhibition observed with our “first-generation” multivalent ligands.[10] In principle the presence of a sterically demanding artificial ligand may hinder or even completely block substrate binding and subsequent cleavage. To assess this, we employed a well-established in vitro cleavage assay using a recombinant, truncated fusion protein harboring the second cleavage site (CS2) of the Mixed Lineage Leukemia 1 (MLL1) protein, a bona fide Taspase 1 substrate.[39] In this assay, the cleaved and uncleaved substrate fractions of the GST-MLL2700–2850-GFP-His substrate were separated on a Coomassie-stained gel, and signal intensities of the different cleavage bands were quantified (Fig. 7, Fig. S8, and Fig. S9). The addition of recombinant, proteolytically active Taspase 1 (200 nM) led to efficient substrate cleavage, which was inhibited by all photoswitchable tweezer constructs in a concentration-dependent manner. IC50 values for the full series of switchable tweezer constructs ranged from 20 to 50 μM, with measurements taken separately for both E and Z isomers Fig. (S9).
Fig. 7 Switchable tweezer constructs interfere with Taspase 1 proteolytic activity. Cleavage assay utilizing the cleavage site CS2 from the natural substrate MLL (GST-MLL2700–2850-GFP-His) and active wildtype Taspase 1. Inhibition of proteolysis was evaluated by the relative amount of uncleaved substrate. Briefly, 5 μM recombinant substrate were incubated with 200 nM wildtype Taspase 1-His and increasing concentrations of TWAAP0-4 (10 - 100 μM), pre-irradiated with either UV light (365 nm, violet), or green light (520 nm, green), or solvent only. Proteolytic activity in solvent-treated samples was set to 100%, and data from TWAAP-treated samples were normalized accordingly. IC50 values were determined by densitometric quantification of the cleavage bands from the gels shown in Fig. S9, followed by nonlinear curve fitting. These values were also used to generate the summary bar plots shown on the right. Data are shown as the mean ± SD from three independent experiments. Composed with https://BioRender.com.
Figure S8. Photoswitchable TWAAP constructs interfere with Taspase 1’s proteolytic activity.
Cleavage assay utilizing the cleavage site CS2 from the natural substrate MLL (GST -MLL2700-2850-GFP-His, 70 kDa) and active wildtype Taspase 1. Inhibition of proteolysis was evaluated by the relative amount of uncleaved in relation to cleaved substrate (50 kDa and 20 kDa, respectively). Briefly, 5 µM recombinant substrate were incubated with 200 nM wildtype Taspase 1-His and increasing concentrations (10 - 100 µM) of indicated TWAAP irradiated with UV (365 nm, left gel panels) or green light (520 nm, right gel panels). Solvent-treated samples (referred to as untreated, un.) served as reference, and as additional controls, Taspase 1 (-T) was omitted or only Taspase 1 (TASP1) was applied. Representative images of three independent experiments are shown. Composed with […]
Figure S9. Photoswitchable TWAAB constructs interfere with Taspase 1’s proteolytic activity. Cleavage assay utilizing the cleavage site CS2 from the natural substrate MLL (GST -MLL2700-2850-GFP-His, 70 kDa) and active wildtype Taspase 1. Inhibition of proteolysis was evaluated by the relative amount of uncleaved in relation to cleaved substrate (50 kDa and 20 kDa, respectively).
Briefly, 5 µM recombinant substrate were incubated with 200 nM wildtype Taspase 1-His and […]

In the case of `O=P(O)(O)Oc1c2c(c(OP(=O)(O)OCCn3cc(COCc4ccc(N=Nc5ccc(COCc6cn(CCOP(=O)(O)Oc7c8c(c(OP(=O)(O)O)c9c7C7CC9c9cc%10c(cc97)C7CC%10c9ccccc97)C7CC8c8cc9c(cc87)C7CC9c8ccccc87)nn6)cc5)cc4)nn3)c3c1C1CC3c3cc4c(cc31)C1CC4c3ccccc31)C1CC2c2cc3c(cc21)C1CC3c2ccccc21` [TWAB2], the “PSS E→Z, photostationary state” value ([1]; UV 365 nm) is reported as 59%, the “PSS Z→E, photostationary state” value ([1]; green light 520 nm) is reported as 56% and the IC50 (wildtype Taspase 1; E isomer) is reported as 22.3 µM. For the same compound, the IC50 (wildtype Taspase 1; Z isomer) was 24.9 µM and the “Difference in inhibitory activity between E and Z isomers (times greater potency of E isomer)” value (wildtype Taspase 1; particularly at 50 μM) was “no difference”.
